Measurements reported in PubChem BioAssay AID463229 (Broad Institute, 2010).

Tested on: INS-1E rat beta cells, no cytokines, CellTiter-Glo ATP, 48 h
Assay: ATP level change in INS-1E without cytokines, dose response, counter-screen for beta-cell apoptosis protection project, INS-1E rat cells, ATP luminescence, cherry pick (AID 463229)

`Cc1csc2ncnc(N3CCN(S(=O)(=O)c4cccc(C(F)(F)F)c4)CC3)c12` and `Cc1ccc(C(=O)Nc2nc(-c3ccccn3)cs2)cc1S(=O)(=O)N1CCOCC1` are within 1.5-fold of each other in AC50: 5.81 µM for the first, 6.47 µM for the second.

`Cc1ccc(C)c(NC(=O)c2ccccc2NS(=O)(=O)c2cc([N+](=O)[O-])ccc2C)c1` and `COc1ccc(-c2csc(NC(=O)c3ccccc3NS(=O)(=O)c3ccc(F)c(F)c3)n2)cc1` are within 1.5-fold of each other in AC50: 3.94 µM for the first, 3.52 µM for the second.

`CCC(C)Sc1cccc(-c2nc3ccc(C)cn3c2NCc2ccccc2)c1` (stereo not drawn) and `Cc1ccc(Nc2cc(C)nc(NCc3ccccc3)n2)cc1` are within 1.5-fold of each other in AC50: 9.3 µM for the first, 8.01 µM for the second.

First: O=C(NNC(=S)Nc1ccc(Cl)c(Cl)c1)c1ccccn1
Second: O=C(Nc1cc(Sc2ccccn2)cc([N+](=O)[O-])c1)c1ccc(Cl)cc1
The AC50 of the first is 2-fold lower: 4.35 µM for the first, 8.9 µM for the second.

`CN(Cc1cccnc1)C(=O)c1cc(COc2ccc3ncccc3c2)on1` and `COC(=O)C1CCCCN1C(=O)c1cc(COc2cccc3cnccc23)on1` (stereo not drawn) are within 1.5-fold of each other in AC50: 9.3 µM for the first, 7.11 µM for the second.

First: O=C(O)CCCC(=O)Nc1ccc(C(=O)NCc2cccnc2)cc1
Second: COc1ccc(C(=O)N/N=C/c2sc3ccccc3c2O)cc1
The AC50 of the first is 1.7-fold lower: 4.54 µM for the first, 7.83 µM for the second.

First: CCOc1ccc(-c2cc(C(=O)NCCCn3ccnc3)c3cc(Br)ccc3n2)cc1
Second: CCOc1ccc(Nc2c3ccccc3nc3ccccc23)cc1
The AC50 of the first is 1.7-fold higher: 12.6 µM for the first, 7.36 µM for the second.

Going from `CC(C)CN(C(=O)COC(=O)C12CC3CC(CC(C3)C1)C2)c1c(N)n(Cc2ccccc2)c(=O)[nH]c1=O` to `CN(C)C1CCN(Cc2cc(COCc3ccccc3)c3cccnc3c2O)C1` (stereo not drawn), the AC50 rises from 3.89 µM to 10.9 µM (2.8-fold).

Compared with `COc1cc2c(cc1OC)-c1c(OC)c(OC)c(OC)c3ccnc(c13)C2=O`, `COc1cccc(/C=N/NC(=O)c2cc3c(OC)ccc(OC)c3[nH]2)c1O` is 1.6-fold higher in AC50: 6.65 µM for the first, 10.7 µM for the second.

Compared with `CC(=O)N(C)C1=C(N2CCOCC2)C(=O)c2ccccc2C1=O`, `CCOC(=O)c1c(C)oc2c1C(=O)c1ccccc1C2=O` is 1.6-fold higher in AC50: 7.91 µM for the first, 12.3 µM for the second.

`O=C(OCn1ncc(Br)c(Br)c1=O)c1ccccc1Cl` and `CCOc1ccccc1NC(=O)C(=O)N/N=C/c1cc(Br)ccc1O` are within 1.5-fold of each other in AC50: 4.55 µM for the first, 4.36 µM for the second.

`N#C/C(=N\Nc1cccc([N+](=O)[O-])c1)C(=O)c1ccc(Br)cc1` and `O=[N+]([O-])c1ccc(NC(=S)NCCc2ccc(F)cc2)cc1` are within 1.5-fold of each other in AC50: 7.29 µM for the first, 7.46 µM for the second.

Compared with `Oc1ccc(Nc2nc(-c3ccc4ccccc4c3)cs2)cc1`, `COc1ccc(-n2c(CNc3ccc(C)cc3)nnc2SCC(=O)Nc2nc(-c3ccccc3)cs2)cc1` is 1.6-fold higher in AC50: 7.98 µM for the first, 12.7 µM for the second.

Compared with `CCC(=O)NC(c1cccs1)c1cc(Cl)c2cccnc2c1O` (stereo not drawn), `CCCC(=O)NC(c1ccccc1)c1ccc2cccnc2c1O` (stereo not drawn) is 1.9-fold lower in AC50: 5.49 µM for the first, 2.85 µM for the second.

Going from `Cc1ccc(C#CC[N+]2(CC#Cc3ccc(C)cc3)CCCCC2)cc1` to `Cc1ccc(S(=O)(=O)Nc2ccccc2N(C)S(=O)(=O)c2ccc(C)cc2)cc1`, the AC50 rises from 3.33 µM to 15.6 µM (4.7-fold).

`CC(C)NC(=S)N/N=C/c1cc(Br)ccc1O` and `COc1cccc(/C=N/Nc2cc(C)nc(-c3ccccc3O)n2)c1O` are within 1.5-fold of each other in AC50: 12.6 µM for the first, 15.1 µM for the second.

Compared with `C#CCOCCOCCOCCNc1nc(N2CCN(C(=O)CCCCCCCCCCNC(=O)[C@@H](CCSC)n3cc(CCO)nn3)CC2)nc(N2CCN(C(=O)CCCCCCCCCCNC(=O)[C@H]([C@@H](C)CC)n3cc(CCCCCN)nn3)CC2)n1`, `CC(C)(C)OC(=O)NCc1ccc(NC(=O)c2nc[nH]c2C(=O)NCCCCNC(=O)c2[nH]cnc2C(=O)Nc2ccc(CNC(=O)OC(C)(C)C)cc2)cc1` is 2.4-fold lower in AC50: 12.9 µM for the first, 5.34 µM for the second.

Going from `Cc1ccc(NC(=O)C2CCN(S(=O)(=O)c3ccc(N4CCCC4=O)cc3)CC2)cc1Cl` to `CC(Oc1cccc(Cl)c1)C(=O)Nc1cc(S(=O)(=O)N2CCOCC2)ccc1N1CCCCC1` (stereo not drawn), the AC50 rises from 2.37 µM to 5.68 µM (2.4-fold).

`CC1CCC(C(C)C)C(OC(=O)C[n+]2cc(-c3ccc(Cl)cc3)n3c2CCCCC3)C1` (stereo not drawn) and `COc1ccc(C(C(=O)NC2CCCCC2)N(C(=O)CCl)c2cccc(Cl)c2)cc1` (stereo not drawn) are within 1.5-fold of each other in AC50: 7.32 µM for the first, 7.03 µM for the second.

Going from `CCCCCCCCCCOC(=O)C[N+](C)(C)C/C=C(/C)Cl` to `C#CC[N+](C)(C)CCCCCCCCCCCC`, the AC50 falls from 16.7 µM to 6.1 µM (2.7-fold).

Going from `COc1cccc(N=Nc2ccc3cccnc3c2O)c1` to `COc1cnc(-c2ccccn2)nc1Sc1ccc(C)cc1`, the AC50 rises from 6.8 µM to 17.2 µM (2.5-fold).

Going from `CC(=O)Oc1c(C)cc(Cl)cc1C(=O)Nc1ccc([N+](=O)[O-])cc1Cl` to `Cc1ccc(C)c(NC(=S)NC(NC(=O)Cc2cccc3ccccc23)C(Cl)(Cl)Cl)c1` (stereo not drawn), the AC50 rises from 1.43 µM to 5.67 µM (4-fold).

`O=C(CC(O)(C(F)(F)F)C(F)(F)F)Nc1ccc(Cl)c(Cl)c1` and `CCc1ccc(Nc2n[n+](-c3ccccc3)c(-c3c(Cl)cccc3Cl)s2)cc1` are within 1.5-fold of each other in AC50: 2.73 µM for the first, 4.08 µM for the second.

First: O=C(c1cccnc1)N(c1cc2sc(=O)oc2c2ccccc12)S(=O)(=O)c1ccccc1
Second: O=C([O-])c1cc(-c2ccccc2)cc(-c2ccccc2)[n+]1Cc1ccccc1
The AC50 of the first is 7.8-fold higher: 15.5 µM for the first, 1.98 µM for the second.

First: CCCCCc1ccc(OCCCC[n+]2ccc(C)cc2)c(CCCCC)c1
Second: COc1ccc(OC)c(NC(=O)CN(Cc2ccc(F)cc2)C2CCCCC2)c1
The AC50 of the first is 1.9-fold lower: 2.34 µM for the first, 4.49 µM for the second.

First: NC(N)=N/N=C/c1cn(-c2ccccc2)nc1-c1cccs1
Second: Cc1cccc2nc(CSc3nc4[nH]ncc4c(=O)n3-c3cccc(Cl)c3)cc(=O)n12
The AC50 of the first is 1.9-fold higher: 14.2 µM for the first, 7.35 µM for the second.

`COc1cc(CNC2CCCC2)cc(Cl)c1OCc1ccccc1Cl` showed an AC50 of 14.6 µM.
